“Also recorded” adds a separate entry of the source. Like-named read-outs stand apart in the source and are kept apart here. Each block holds one compound with its values, some of them ahead of it.
Legend:
[1] = target: BIRC3 (Homo sapiens, UniProt Q13489); test: NanoBRET cellular target engagement, full-length BIRC3
Method: (§1) In brief: Constructs contained the cDNA of full-length or single domains cloned in frame with an N-terminal NanoLuc-fusion as specified in Supplementary Table S2. Plasmids were transfected into HEK293T cells using FuGENE HD (Promega, E2312) and proteins were allowed to express for 20 h. […] The corresponding transfected cells were added and reseeded at a density of 2.5^5 cells/mL after trypsinization and resuspending in Opti-MEM without phenol red (Life Technologies). […] Competitive displacement data were then graphed using GraphPad Prism 9.3 software using a normalized 3-parameter curve fit with the following equation: Y = 100/(1 + 10^(X-LogIC50)).

[2] = target: T1, BIRC8 (Homo sapiens, UniProt Q96P09); test: NanoBRET cellular target engagement, full-length BIRC8
T1 sequence (Q96P09 1-236): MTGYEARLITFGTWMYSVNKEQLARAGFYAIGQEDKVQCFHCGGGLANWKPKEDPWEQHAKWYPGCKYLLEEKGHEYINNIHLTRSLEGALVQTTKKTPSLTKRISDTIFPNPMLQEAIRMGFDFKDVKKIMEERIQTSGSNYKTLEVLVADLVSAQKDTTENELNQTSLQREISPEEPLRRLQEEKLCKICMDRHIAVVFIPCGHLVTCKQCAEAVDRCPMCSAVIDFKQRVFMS
Method: as §1

[3] = target: T2, BIRC8 BIR (Homo sapiens, UniProt Q96P09); test: NanoBRET cellular target engagement, single domain BIRC8 BIR
T2 sequence (Q96P09 1-90): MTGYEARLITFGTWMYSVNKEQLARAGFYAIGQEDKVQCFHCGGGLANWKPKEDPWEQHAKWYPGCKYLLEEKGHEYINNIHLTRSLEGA
Method: as §1

[4] = target: BIRC3 BIR2 (Homo sapiens, UniProt Q13489); test: NanoBRET cellular target engagement, single domain BIRC3 BIR2
BIRC3 BIR2, sequence (Q13489 147-253): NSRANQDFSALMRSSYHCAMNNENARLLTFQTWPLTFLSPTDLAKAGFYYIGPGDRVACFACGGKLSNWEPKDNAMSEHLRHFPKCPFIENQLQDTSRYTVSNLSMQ
Method: as §1

[5] = target: BIRC3 BIR3 (Homo sapiens, UniProt Q13489); test: NanoBRET cellular target engagement, single domain BIRC3 BIR3
BIRC3 BIR3, sequence (Q13489 236-360): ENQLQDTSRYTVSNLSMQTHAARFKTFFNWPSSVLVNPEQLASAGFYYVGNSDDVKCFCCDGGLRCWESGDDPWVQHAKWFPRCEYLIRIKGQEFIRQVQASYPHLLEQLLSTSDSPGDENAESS
Method: as §1

[6] = target: T3, BIRC1 BIR[2] (Homo sapiens, UniProt Q13075); test: NanoBRET cellular target engagement, single domain BIRC1 BIR[2]
T3 sequence (Q13075 139-251): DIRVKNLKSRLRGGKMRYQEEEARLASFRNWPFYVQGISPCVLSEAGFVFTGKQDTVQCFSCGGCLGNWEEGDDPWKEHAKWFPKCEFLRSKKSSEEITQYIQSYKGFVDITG

[7] = target: T4, BIRC7 (Homo sapiens, UniProt Q96CA5); test: NanoBRET cellular target engagement, full-length BIRC7
T4 sequence (Q96CA5 1-298): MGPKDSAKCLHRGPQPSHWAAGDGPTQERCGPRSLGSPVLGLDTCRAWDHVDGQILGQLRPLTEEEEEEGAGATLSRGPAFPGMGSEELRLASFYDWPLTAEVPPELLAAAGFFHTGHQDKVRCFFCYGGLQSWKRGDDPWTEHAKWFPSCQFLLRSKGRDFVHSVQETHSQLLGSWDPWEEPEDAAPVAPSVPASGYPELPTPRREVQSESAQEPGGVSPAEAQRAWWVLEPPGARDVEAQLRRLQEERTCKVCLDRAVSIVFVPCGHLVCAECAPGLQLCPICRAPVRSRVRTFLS
Method: as §1

[8] = target: T5, BIRC7 BIR (Homo sapiens, UniProt Q96CA5); test: NanoBRET cellular target engagement, single domain BIRC7 BIR
T5 sequence (Q96CA5 70-176): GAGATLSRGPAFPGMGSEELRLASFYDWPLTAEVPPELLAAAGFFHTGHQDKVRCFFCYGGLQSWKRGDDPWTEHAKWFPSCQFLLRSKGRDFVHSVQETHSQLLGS
Method: as §1

[9] = target: T6, BIRC2-BIR3 domain (Homo sapiens, UniProt Q13490); test: Differential scanning fluorimetry (DSF); settings: for Mean, ΔTm [°C] (Supplementary Table S1): mean of n=3, difference to DMSO control; for ΔTm [°C] (Supplementary Table S1): technical replicate
T6 sequence (Q13490 260-352): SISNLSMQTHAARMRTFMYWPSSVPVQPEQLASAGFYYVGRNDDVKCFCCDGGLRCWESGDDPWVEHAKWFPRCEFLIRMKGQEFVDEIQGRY
Method: Purified proteins were buffered in DSF buffer (25 mM HEPES pH 7.5, 500 mM NaCl) and were assayed in a 384-well plate (Thermo, #BC3384) with a final protein concentration of 20 μM in 10 μL final assay volume. Inhibitors were added in excess to a final concentration of 40 μM, using an ECHO 550 acoustic dispenser (Labcyte). As a fluorescent probe, SYPRO-Orange (Molecular Probes) was used at 5x final concentration. […] Data was analyzed using Boltzmann-equation in the Protein Thermal Shift software (Applied Biosystems). Samples were measured in technical triplicates.
The assay was run in the presence of DMSO to exclude DMSO influences towards melting temperature differences when testing small molecules (Figures 2C,D).

[10] = target: BIRC2 (Homo sapiens, UniProt Q13490); test: NanoBRET cellular target engagement, full-length BIRC2
BIRC2, sequence (Q13490 whole entry): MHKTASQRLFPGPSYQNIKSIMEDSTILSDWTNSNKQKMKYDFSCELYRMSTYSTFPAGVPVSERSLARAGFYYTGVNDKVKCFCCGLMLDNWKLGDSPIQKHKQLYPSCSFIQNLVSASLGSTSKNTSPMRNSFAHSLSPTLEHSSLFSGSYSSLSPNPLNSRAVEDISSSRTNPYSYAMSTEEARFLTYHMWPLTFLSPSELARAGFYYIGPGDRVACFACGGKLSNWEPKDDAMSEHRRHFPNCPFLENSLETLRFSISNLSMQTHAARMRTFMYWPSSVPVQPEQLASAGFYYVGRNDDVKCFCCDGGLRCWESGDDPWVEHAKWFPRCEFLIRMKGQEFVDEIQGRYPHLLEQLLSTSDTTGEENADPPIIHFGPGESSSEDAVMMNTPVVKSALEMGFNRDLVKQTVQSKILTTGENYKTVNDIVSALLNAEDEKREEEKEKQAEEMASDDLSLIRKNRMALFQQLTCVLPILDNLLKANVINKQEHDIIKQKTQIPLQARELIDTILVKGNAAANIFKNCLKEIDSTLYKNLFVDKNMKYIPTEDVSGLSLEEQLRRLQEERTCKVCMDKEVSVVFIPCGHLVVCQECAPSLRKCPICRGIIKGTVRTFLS

[11] = target: BIRC4 (Homo sapiens, UniProt P98170); test: NanoBRET cellular target engagement, full-length BIRC4
BIRC4, sequence (P98170 whole entry, the tested form may be a part): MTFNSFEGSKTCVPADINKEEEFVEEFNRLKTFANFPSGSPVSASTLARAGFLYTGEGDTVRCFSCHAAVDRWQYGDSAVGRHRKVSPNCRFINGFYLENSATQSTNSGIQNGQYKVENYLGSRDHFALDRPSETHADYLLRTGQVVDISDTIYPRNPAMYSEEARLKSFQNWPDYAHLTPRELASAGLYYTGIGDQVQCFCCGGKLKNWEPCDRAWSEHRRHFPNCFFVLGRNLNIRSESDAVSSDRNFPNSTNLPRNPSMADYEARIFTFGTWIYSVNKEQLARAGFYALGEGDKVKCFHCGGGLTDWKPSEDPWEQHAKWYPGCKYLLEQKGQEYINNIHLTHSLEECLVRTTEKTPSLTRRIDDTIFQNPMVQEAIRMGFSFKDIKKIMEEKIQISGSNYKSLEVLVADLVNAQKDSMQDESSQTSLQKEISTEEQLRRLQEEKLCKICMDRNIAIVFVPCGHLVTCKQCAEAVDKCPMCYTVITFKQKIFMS
Method: as §1

[12] = target: BIRC2 BIR2 (Homo sapiens, UniProt Q13490); test: NanoBRET cellular target engagement, single domain BIRC2 BIR2
BIRC2 BIR2, sequence (Q13490 165-267): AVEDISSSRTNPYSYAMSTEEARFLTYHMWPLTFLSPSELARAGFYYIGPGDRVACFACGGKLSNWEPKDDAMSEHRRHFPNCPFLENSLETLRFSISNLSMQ
Method: as §1

[13] = target: BIRC2 BIR3 (Homo sapiens, UniProt Q13490); test: NanoBRET cellular target engagement, single domain BIRC2 BIR3
BIRC2 BIR3, sequence (Q13490 251-372): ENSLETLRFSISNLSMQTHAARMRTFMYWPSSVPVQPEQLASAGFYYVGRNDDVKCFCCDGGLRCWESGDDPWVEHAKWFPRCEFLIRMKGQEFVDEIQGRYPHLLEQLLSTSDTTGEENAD
Method: as §1

[14] = target: T6, BIRC2-BIR3 domain; test: Fluorescence polarization (FP) competition assay with fluorescent SMAC probe; type: binding; set-up: BIRC2-BIR3 domain (260–352) was expressed; His6 (N, cleaved yes); GST (N, cleaved yes); made in house; host or cells: E. coli
Method: Resulting data was plotted using GraphPad Prism 9.3 software and analyzed using a nonlinear fit to calculate the probe IC50. […] Compounds were titrated from 20 μM to 20 nM using an ECHO 550 acoustic dispenser (Labcyte) incubated for 1 h at room temperature and subsequent read out.
The assay is based on the displacement of a fluorescent SMAC mimetic from the binding site.

[15] = target: T6, BIRC2-BIR3 domain; test: Isothermal titration calorimetry (ITC); type: binding; set-up: BIRC2-BIR3 domain (260–352) was expressed; His6 (N, cleaved yes); GST (N, cleaved yes); made in house; host or cells: E. coli; settings: 25°C, duplicates, mean ± SD
Method: For this protocol, the chamber was pre-equilibrated with the test compound, and the BIRC2-BIR3 domain was titrated in while continuously measuring the rate of exothermic heat evolution. The heat of binding was integrated, corrected, and fitted to an independent single-binding site model based on the manufacturer’s instructions, from which thermodynamic parameters (ΔH and TΔS), equilibrium association and dissociation constants (K A and K D, respectively), and stoichiometry (n) were calculated.

BIRC3, sequence (Q13489 whole entry): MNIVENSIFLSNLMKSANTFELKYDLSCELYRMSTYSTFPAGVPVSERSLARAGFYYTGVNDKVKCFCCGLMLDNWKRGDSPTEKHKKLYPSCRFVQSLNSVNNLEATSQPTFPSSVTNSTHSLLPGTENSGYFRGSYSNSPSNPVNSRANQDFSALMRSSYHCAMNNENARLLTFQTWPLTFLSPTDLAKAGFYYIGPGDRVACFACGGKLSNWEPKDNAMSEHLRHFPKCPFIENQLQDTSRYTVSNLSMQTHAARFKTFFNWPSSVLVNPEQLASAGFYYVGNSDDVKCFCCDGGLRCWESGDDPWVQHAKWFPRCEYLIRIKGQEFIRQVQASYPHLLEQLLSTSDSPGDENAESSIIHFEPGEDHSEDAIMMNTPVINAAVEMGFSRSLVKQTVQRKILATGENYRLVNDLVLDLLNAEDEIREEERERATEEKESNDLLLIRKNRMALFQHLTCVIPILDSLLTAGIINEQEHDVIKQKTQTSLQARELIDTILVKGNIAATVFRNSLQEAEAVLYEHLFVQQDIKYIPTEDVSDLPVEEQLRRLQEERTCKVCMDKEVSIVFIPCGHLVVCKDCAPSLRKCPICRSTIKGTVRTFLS

EC50 [1]: 800 ± 400 nM
EC50 [2]: 2200 ± 1100 nM
EC50 [3]: 3500 ± 100 nM
EC50 [4]: 17400 ± 1700 nM
EC50 [5]: 900 nM
EC50 [6]: 18300 ± 1100 nM
Structure (SMILES): CC[C@H](NC(=O)[C@H](C)NC)C(=O)N1C[C@@H](O)C[C@H]1Cc1c(-c2[nH]c3cc(F)ccc3c2C[C@@H]2C[C@H](O)CN2C(=O)[C@H](CC)NC(=O)[C@H](C)NC)[nH]c2cc(F)ccc12 [Birinapant]

EC50 [7]: 26.4 ± 5.5 nM
EC50 [2]: 199 ± 21.4 nM
EC50 [8]: 28.5 ± 7 nM
EC50 [3]: 258 ± 42.4 nM
EC50 [6]: 1490 ± 297 nM
Structure (SMILES): CN[C@@H](C)C(=O)N[C@H](C(=O)N1CCC[C@H]1c1nc(C(=O)c2ccc(F)cc2)cs1)C1CCCCC1 [LCL161]

Mean, ΔTm [°C] (Supplementary Table S1) [9]: 0.3 °C
ΔTm [°C] (Supplementary Table S1) ([9]; first column): 0.4 °C
ΔTm [°C] (Supplementary Table S1) ([9]; second column): 0.3 °C
ΔTm [°C] (Supplementary Table S1) ([9]; third column): 0.2 °C
EC50 ([10]; read-out: EC50 ± SEM NanoBRET BIRC2, full-length, HEK293T, n = 4): > 50000 nM
EC50 ([1]; read-out: EC50 ± SEM NanoBRET BIRC3, full-length, HEK293T, n = 4): > 50000 nM
EC50 ([11]; read-out: EC50 ± SEM NanoBRET BIRC4, full-length, HEK293T, n = 4): > 50000 nM
EC50 ([7]; read-out: EC50 ± SEM NanoBRET BIRC7, full-length, HEK293T, n = 4): > 50000 nM
EC50 ([2]; read-out: EC50 ± SEM NanoBRET BIRC8, full-length, HEK293T, n = 4): > 50000 nM
EC50 ([8]; read-out: EC50 ± SEM NanoBRET BIRC7 BIR, single domain, HEK293T, n = 4): > 50000 nM
EC50 ([3]; read-out: EC50 ± SEM NanoBRET BIRC8 BIR, single domain, HEK293T, n = 4): > 50000 nM
EC50 ([12]; read-out: EC50 ± SEM NanoBRET BIRC2 BIR2, single domain, HEK293T, n = 4): > 50000 nM
EC50 ([4]; read-out: EC50 ± SEM NanoBRET BIRC3 BIR2, single domain, HEK293T, n = 4): > 50000 nM
EC50 ([13]; read-out: EC50 ± SEM NanoBRET BIRC2 BIR3, single domain, HEK293T, n = 4): > 50000 nM
EC50 ([5]; read-out: EC50 ± SEM NanoBRET BIRC3 BIR3, single domain, HEK293T, n = 4): > 50000 nM
EC50 ([6]; read-out: EC50 ± SEM NanoBRET BIRC1 BIR[2], single domain, HEK293T, n = 4): > 50000 nM
K D Measured in ITC [15]: no binding
Structure (SMILES): Oc1c(CN2CCCC2)cc(COCc2ccccc2)c2cccnc12 [UC-112]
FP Assay K I Values ([14]; BIRC2 BIR3 domain, Cheng-Prusoff from IC50, mean ± SD, n = 3): binding could not be shown; also recorded: no interaction at all

Mean, ΔTm [°C] (Supplementary Table S1) [9]: 10.9 °C
ΔTm at 40 µM ([9]; read-out: DSF Assay ΔTm): 10.8 ± 0.1 °C
ΔTm [°C] (Supplementary Table S1) ([9]; first column): 10.9 °C
ΔTm [°C] (Supplementary Table S1) ([9]; second column): 10.9 °C
EC50 [10]: 622 ± 232 nM
EC50 [1]: 739 ± 108 nM
EC50 [11]: 190 ± 26.9 nM
EC50 [2]: 218 ± 48.3 nM
EC50 [3]: 272 ± 6.1 nM
EC50 [12]: 15400 ± 8970 nM
EC50 [4]: 14800 ± 636 nM
EC50 [13]: 54.4 ± 1 nM
EC50 [5]: 20 ± 3.1 nM
EC50 [6]: 10100 ± 1230 nM
Ki ([14]; read-out: FP Assay K I Values): 2.9 ± 0.3 nM
Kd ([15]; read-out: K D Measured in ITC): 44.7 ± 11.8 nM
Structure (SMILES): CN[C@@H](C)C(=O)N[C@H](C(=O)N1CCC[C@H]1C(=O)Nc1sc(-c2ncco2)nc1-c1ccccc1)C1CCCCC1 [CUDC-427]

Reference: article PMC9204419, “A Toolbox for the Generation of Chemical Probes for Baculovirus IAP Repeat Containing Proteins” (Frontiers in Cell and Developmental Biology, 2022)
